Assay results reported in patent US12594267B2, “Capsid inhibitors for the treatment of HIV” (Gilead Sciences, Inc., priority 2018, dated 2026).
Where two headings read alike, the source gives them in different places.

Assay: PK after subcutaneous administration of solutions in rats
Format: in vivo, Wistar Han rat
Details: Wistar Han, plasma, rat, SC 50 mg/kg; for AUC(0-t) / concentration at 28 d / concentration at 84 d / Cmax / concentration at 98 d / concentration at 168 d / concentration at 1 h / concentration at 3 h / concentration at 8 h / concentration at 24 h / concentration at 48 h / concentration at 72 h / concentration at 96 h / concentration at 168 h / concentration at 336 h / concentration at 504 h / concentration at 672 h / concentration at 840 h / concentration at 1008 h / concentration at 1344 h / concentration at 1680 h: sc, 50 mg/kg; for concentration at 28 d: read-out: C28d; for concentration at 84 d: read-out: C84d; for concentration at 98 d: read-out: C98d; for concentration at 1 h / concentration at 3 h / concentration at 8 h / concentration at 24 h / concentration at 48 h / concentration at 72 h / concentration at 96 h / concentration at 168 h / concentration at 336 h / concentration at 504 h / concentration at 672 h / concentration at 840 h / concentration at 1008 h / concentration at 1344 h / concentration at 1680 h: male, 300 mg/mL in 15% water/85% PEG 300
Method: Formulations containing the compound of Formula (Ia) were prepared as aqueous solutions or oral formulations and administered subcutaneously to rats, dogs, cynomolgus monkey, and/or rhesus monkey.
A solution of the compound of Formula (Ia) in 10% ethanol, 13% water, and 77% PEG 200 (400 mg/mL) was prepared. The solution was administered subcutaneously to dogs at a dose of 12 mg/kg and rats at a dose of 50 mg/kg and the pharmacokinetic (PK) profile was determined. […] In both species, plasma concentrations of the compound of Formula (Ia) were maintained above the target trough concentration of 20 nM (corresponding to an IQ of 5) for at least 84 days (12 weeks).
A solution of the free acid of the compound of Formula (Ia) in 15% water and 85% PEG 300 (300 mg/mL) was prepared. The solution was administered subcutaneously to male Wistar Han rats at a dose level of 50 mg/kg and dose volume of 0.167 mL/kg and the pharmacokinetic (PK) profile was determined.
A 300 mg/ml solution of a compound of Formula (Ia) having 9.8 w/w % water, 65.0 w/w % PEG 300, and 25.2 w/w % of the compound of Formula (Ia) was prepared. The solution was administered subcutaneously to rats at a dose of 50 mg/kg and to dogs at a dose of 12 mg/kg and the pharmacokinetic (PK) profile was determined. […] In the rat, plasma concentrations of the compound of Formula (Ia) were maintained above the target trough concentration of 20 nM for at least 168 days (24 weeks). In the dog, plasma concentrations of the compound of Formula (Ia) were maintained above the target trough concentration of 20 nM for at least 84 days (12 weeks).
(§1) A 150 mg/ml solution of a compound of Formula (Ia) having 27.92 w/w % water, 58.04 w/w % PEG 300, 13.47 w/w % of a compound of Formula (Ia), and 1.1 w/w % NaOH was prepared. The solution was administered subcutaneously to rats at a dose of 50 mg/kg and to dogs at a dose of 12 mg/kg and the pharmacokinetic (PK) profile was determined. […] In the rat, plasma concentrations of the compound of Formula (Ia) were maintained above the target trough concentration of 20 nM for at least 126 days (18 weeks). In the dog, plasma concentrations of the compound of Formula (Ia) were maintained above the target trough concentration of 20 nM for at least 56 days (8 weeks).
as §1, with “300” for “150”, “23.2” for “27.92”, “50.0” for “58.04”, “25.7” for “13.47”
A 50 mg/ml solution of a compound of Formula (Ia) having 30.07 w/w % water, 64.40 w/w % PEG 300, 4.68 w/w % of a sodium salt of the compound of Formula (Ia), and 0.85 w/w % poloxamer 188 was prepared. The solution was administered subcutaneously to rats at a dose of 50 mg/kg and to dogs at a dose of 6 mg/kg and the pharmacokinetic (PK) profile was determined. […] In the rat, plasma concentrations of the compound of Formula (Ia) were maintained above the target trough concentration of 20 nM for at least 28 days (4 weeks). In the dog, plasma concentrations of the compound of Formula (Ia) were maintained above the target trough concentration of 20 nM for at least 14 days (2 weeks).
A 75 mg/ml solution of a compound of Formula (Ia) having 29.21 w/w % water, 62.55 w/w % PEG 300, 6.97 w/w % of a sodium salt of the compound of Formula (Ia), and 1.68 w/w % poloxamer 188 was prepared. The solution was administered subcutaneously to rats at a dose of 50 mg/kg and to dogs at a dose of 6 mg/kg and the pharmacokinetic (PK) profile was determined. […]

[1] = 150 mg/mL solution (w/w %: 27.92 water, 58.04 PEG 300, 13.47 Formula (Ia), 1.1 NaOH), mean ± SD, n=3
[2] = 300 mg/mL solution (w/w %: 21.97 water, 47.05 PEG 300, 25.21 Formula (Ia), 1.08 NaOH, 4.69 poloxamer 188), mean ± SD, n=3
[3] = 400 mg/mL solution in 10% ethanol, 13% water, 77% PEG 200, mean ± SD, n=3

Compound: CC(C)(C#Cc1ccc(-c2ccc(Cl)c3c(NS(C)(=O)=O)nn(CC(F)(F)F)c23)c([C@H](Cc2cc(F)cc(F)c2)NC(=O)Cn2nc(C(F)(F)F)c3c2C(F)(F)[C@@H]2C[C@H]32)n1)S(C)(=O)=O [Formula (Ia), N—((S)-1-(3-(4-chloro-3-(methylsulfonamido)-1-(2,2,2-trifluoroethyl)-1H-indazol-7-yl)-6-(3-methyl-3-(methylsulfonyl)but-1-yn-1-yl)pyridin-2-yl)-2-(3,5-difluorophenyl)ethyl)-2-((3bS,4aR)-5,5-difluoro-3-(trifluoromethyl)-3b,4,4a,5-tetrahydro-1H-cyclopropa[3,4]cyclopenta[1,2-c]pyrazol-1-yl)acetamide]
- Tmax [1]: 18.7 ± 4.04 days
- AUC(0-t) (50 mg/mL solution (w/w %: 30.07 water, 64.40 PEG 300, 4.68 sodium salt of Formula (Ia), 0.85 poloxamer 188), mean ± SD, n=3, read-out: AUC0-7d): 156 ± 48 µM·h
- concentration at 28 d (50 mg/mL solution (w/w %: 30.07 water, 64.40 PEG 300, 4.68 sodium salt of Formula (Ia), 0.85 poloxamer 188), mean ± SD, n=3): 82 ± 35 nM
- concentration at 28 d (75 mg/mL solution (w/w %: 29.21 water, 62.55 PEG 300, 6.97 sodium salt of Formula (Ia), 1.68 poloxamer 188), mean ± SD, n=3): 32.5 ± 18.5 nM
- AUC(0-t) (100 mg/mL solution (w/w %: 28.36 water, 60.73 PEG 300, 9.23 sodium salt of Formula (Ia), 1.68 poloxamer 188), mean ± SD, n=3, read-out: AUC0-7d): 202 ± 27 µM·h
- concentration at 28 d (100 mg/mL solution (w/w %: 28.36 water, 60.73 PEG 300, 9.23 sodium salt of Formula (Ia), 1.68 poloxamer 188), mean ± SD, n=3): 415 ± 98 nM
- concentration at 28 d (125 mg/mL solution (w/w %: 27.51 water, 58.92 PEG 300, 11.48 sodium salt of Formula (Ia), 2.09 poloxamer 188), mean ± SD, n=3): 27.9 ± 26.2 nM
- concentration at 84 d (150 mg/mL solution (w/w %: 26.6 water, 56.97 PEG 300, 13.39 Formula (Ia), 0.57 NaOH, 2.49 poloxamer 188), mean ± SD, n=3): 53.3 ± 45.7 nM
- Cmax [1]: 809 ± 21 nM
- concentration at 98 d [1]: 37 ± 10.7 nM
- Cmax (300 mg/mL solution (w/w %: 9.8 water, 65.0 PEG 300, 25.2 Formula (Ia)), mean ± SD, n=3): 318 ± 146 nM
- concentration at 168 d (300 mg/mL solution (w/w %: 9.8 water, 65.0 PEG 300, 25.2 Formula (Ia)), mean ± SD, n=3, read-out: Cd168): 78.4 ± 13.8 nM
- Cmax [2]: 915 ± 248 nM
- concentration at 98 d [2]: 51.3 ± 36.5 nM
- Cmax (300 mg/mL solution (w/w %: 23.2 water, 50.0 PEG 300, 25.7 Formula (Ia), 1.1 NaOH), mean ± SD, n=3): 355 ± 36 nM
- concentration at 168 d (300 mg/mL solution (w/w %: 23.2 water, 50.0 PEG 300, 25.7 Formula (Ia), 1.1 NaOH), mean ± SD, n=3, read-out: C168d): 12.8 ± 3.5 nM
- AUC(0-t) (400 mg/mL solution in 10% ethanol, 13% water, 77% PEG 200, mean ± SD, n=3, read-out: AUC0-140d): 569 ± 157 µM·h
- concentration at 84 d [3]: 162 ± 30 nM
- Cmax [3]: 283 ± 119 nM
- concentration at 1 h (rat #1): 8.9 nM
- concentration at 3 h (rat #1): 27 nM
- concentration at 8 h (rat #1): 37 nM
- concentration at 24 h (rat #1): 52.6 nM
- concentration at 48 h (rat #1): 69.8 nM
- concentration at 72 h (rat #1): 65.6 nM
- concentration at 96 h (rat #1): 65.5 nM
- concentration at 168 h (rat #1): 143 nM
- concentration at 336 h (rat #1): 258 nM
- concentration at 504 h (rat #1): 327 nM
- concentration at 672 h (rat #1): 333 nM
- concentration at 840 h (rat #1): 322 nM
- concentration at 1008 h (rat #1): 300 nM
- concentration at 1344 h (rat #1): 251 nM
- concentration at 1680 h (rat #1): 202 nM
- concentration at 1 h (rat #2): 11.4 nM
- concentration at 3 h (rat #2): 17.3 nM
- concentration at 8 h (rat #2): 32.8 nM
- concentration at 24 h (rat #2): 49.2 nM
- concentration at 48 h (rat #2): 71.1 nM
- concentration at 72 h (rat #2): 66.9 nM
- concentration at 96 h (rat #2): 76.8 nM
- concentration at 168 h (rat #2): 132 nM
- concentration at 336 h (rat #2): 273 nM
- concentration at 504 h (rat #2): 267 nM
- concentration at 672 h (rat #2): 299 nM
- concentration at 840 h (rat #2): 316 nM
- concentration at 1008 h (rat #2): 258 nM
- concentration at 1344 h (rat #2): 229 nM
- concentration at 1680 h (rat #2): 166 nM
- concentration at 1 h (rat #3): 5.6 nM
- concentration at 3 h (rat #3): 20.1 nM
- concentration at 8 h (rat #3): 26.8 nM
- concentration at 24 h (rat #3): 42.8 nM
- concentration at 48 h (rat #3): 70.8 nM
- concentration at 72 h (rat #3): 70.1 nM
